In patent US11231421B2, “Methods of treating multifocal cancer” (NYMOX CORPORATION, priority 2019, dated 2022):
Where no end group is shown, it is not given here.

Experiments:
injected areas = experiment: Histology of injected areas after treatment; format: in vivo; details: up to several weeks after treatment
Source text: Use of FT is a preferred embodiment. FT is a new molecular entity which in vitro stimulates caspase pathways (activation of caspases 7, 8, and 10, caspase recruitment domains 6, 11, and 14, and DIABLO), tumor necrosis factor pathways (activation of TNF1, TNFSF6, TNFSF8, TNFSF9, CD70 ligands, and TNFRSF19L, TNFRSF25, TRAF2, TRAF3, TRAF4, TRAF6 receptors), and BCL pathways (activation of BIK, HRK, BCL2L10 and BCL3) in prostate glandular epithelial cells, based on tissue culture genetic array data. […] The apoptotic process leads to typical ultrastructural progressive changes of membranous disruption and swelling, progressively deepening nuclear invaginations with eventual membranous bleb formations and cell death and fragmentation into apoptotic bodies.

[1] = tested on: low grade prostate cancer (Gleason grade 6); experiment: Clinical study, Example 4: hemi-prostate multifocal cancer with increase in Gleason primary pattern; format: in vivo, human; details: for % Imp.: hemi-prostate multifocal cancer with increase in Gleason primary pattern: vs control active surveillance
Protocol: (§1) In a series of clinical studies a total of 146 men with low grade prostate cancer (Gleason grade 6) were treated in the following manner. Patients were randomized and treated with a transrectal intraprostatic single injection of a composition comprising 2.5 mg FT (n=49), or a composition comprising 15 mg FT (n=48), or were subject to control active surveillance (n=49). After the first follow-up biopsy at 45 days post-randomization, 18 patients in the control active surveillance group crossed over to a single administration of a composition in which 10 patients received 2.5 mg FT, and 8 patients received 15 mg FT. Patients were followed for 5 years including biopsies at baseline, 45 days, 18, 36, and 48 months, and urological evaluations with PSA every 6 months. Patients with Gleason grade increase or who elected surgical or radiotherapeutic intervention exited the study and were still included in the data analysis. Percentage of normal biopsies in the baseline focus quadrant and median tumor grade and volume were assessed; progression was measured by clinical and pathological outcomes including Gleason grade, and Gleason grade primary pattern, in the entire prostate sampled as well as for the treated prostate lobe. Interventions associated with Gleason grade increase as well as total incidence for any conventional surgical intervention (e.g., surgery, radiotherapy, and/or chemotherapy) was assessed.

[2] = tested on: low grade prostate cancer (Gleason grade 6); experiment: Clinical study, Example 8: cancer treatment with new multifocal and an increase in Gleason grade primary pattern in the hemi-prostate; format: in vivo, human; details: for % Imp.: cancer treatment with new multifocal and an increase in Gleason grade primary pattern in the hemi-prostate: vs control active surveillance
Protocol: as §1, with “assessed. This example evaluated the percentage of patients having conventional cancer treatment (surgery, radiotherapy, or chemotherapy), and having multifocal prostate cancer in the lobe (or hemi-prostate) in which the foci were initially treated with Gleason primary pattern (cancer treatment with new multifocal and an increase in Gleason grade primary pattern in the hemi-prostate).” for “assessed.”

[3] = tested on: low grade prostate cancer (Gleason grade 6); experiment: Clinical study, Example 7: cancer treatment with new multifocal with increased Gleason grade in the hemi-prostate; format: in vivo, human; details: for % Imp.: cancer treatment with new multifocal with increased Gleason grade in the hemi-prostate: vs control active surveillance
Protocol: as §1, with “assessed. This example evaluated the percentage of patients who had conventional cancer treatment (e.g., surgery, radiotherapy, and/or chemotherapy), and who and who had multifocal prostate cancer in the lobe (or hemi-prostate) in which the foci were initially treated with Gleason upgrade (cancer treatment with new multifocal with increased Gleason grade in the hemi-prostate).” for “assessed.”

[4] = FT 2.5 mg, <=18 mos from treatment
[5] = FT 2.5 mg, <=36 mos from treatment
[6] = FT 2.5 mg, <=48 mos from treatment
[7] = FT 15 mg, <=18 mos from treatment
[8] = FT 15 mg, <=36 mos from treatment
[9] = FT 15 mg, <=48 mos from treatment
[10] = Pooled FT (2.5 mg and 15 mg), <=18 mos from treatment
[11] = Pooled FT (2.5 mg and 15 mg), <=18 mos
[12] = Pooled FT (2.5 mg and 15 mg), <=36 mos from treatment
[13] = Pooled FT (2.5 mg and 15 mg), <=36 mos
[14] = Pooled FT (2.5 mg and 15 mg), <=48 mos from treatment
[15] = Pooled FT (2.5 mg and 15 mg), <=48 mos

fexapotide triflutate (IDQQVLSRIKLEIKRCL; also: trifluoroacetate salt) [FT]
histological changes in injected areas (injected areas): typical apoptotic changes with positive immunohistochemical staining of markers for apoptosis are found throughout the injected areas | percentage of patients: hemi-prostate multifocal cancer with increase in Gleason primary pattern [1, 4]: 0 (p = 0.033) % | % Imp.: hemi-prostate multifocal cancer with increase in Gleason primary pattern ([1]; FT 2.5 mg, <=18 mos): 100% | percentage of patients: hemi-prostate multifocal cancer with increase in Gleason primary pattern [1, 5]: 0 (p = 0.018) % | % Imp.: hemi-prostate multifocal cancer with increase in Gleason primary pattern ([1]; FT 2.5 mg, <=36 mos): 100% | percentage of patients: hemi-prostate multifocal cancer with increase in Gleason primary pattern [1, 6]: 0 (p = 0.037) % | % Imp.: hemi-prostate multifocal cancer with increase in Gleason primary pattern ([1]; FT 2.5 mg, <=48 mos): 100% | percentage of patients: hemi-prostate multifocal cancer with increase in Gleason primary pattern [1, 7]: 2.9% | % Imp.: hemi-prostate multifocal cancer with increase in Gleason primary pattern ([1]; FT 15 mg, <=18 mos): 76.8% | percentage of patients: hemi-prostate multifocal cancer with increase in Gleason primary pattern [1, 8]: 4.5% | % Imp.: hemi-prostate multifocal cancer with increase in Gleason primary pattern ([1]; FT 15 mg, <=36 mos): 79% | percentage of patients: hemi-prostate multifocal cancer with increase in Gleason primary pattern [1, 9]: 6.7% | % Imp.: hemi-prostate multifocal cancer with increase in Gleason primary pattern ([1]; FT 15 mg, <=48 mos): 75.5% | percentage of patients: hemi-prostate multifocal cancer with increase in Gleason primary pattern [1, 10]: 1.4 (p = 0.03) % | % Imp.: hemi-prostate multifocal cancer with increase in Gleason primary pattern [1, 11]: 88.8% | percentage of patients: hemi-prostate multifocal cancer with increase in Gleason primary pattern [1, 12]: 2.2 (p = 0.011) % | % Imp.: hemi-prostate multifocal cancer with increase in Gleason primary pattern [1, 13]: 89.7% | percentage of patients: hemi-prostate multifocal cancer with increase in Gleason primary pattern [1, 14]: 3.4 (p = 0.025) % | % Imp.: hemi-prostate multifocal cancer with increase in Gleason primary pattern [1, 15]: 87.5% | percentage of patients: cancer treatment with new multifocal and an increase in Gleason grade primary pattern in the hemi-prostate [2, 4]: 0 (p = 0.025) % | % Imp.: cancer treatment with new multifocal and an increase in Gleason grade primary pattern in the hemi-prostate ([2]; FT 2.5 mg, <=18 mos): 100% | percentage of patients: cancer treatment with new multifocal and an increase in Gleason grade primary pattern in the hemi-prostate [2, 5]: 0 (p = 0.017) % | % Imp.: cancer treatment with new multifocal and an increase in Gleason grade primary pattern in the hemi-prostate ([2]; FT 2.5 mg, <=36 mos): 100% | percentage of patients: cancer treatment with new multifocal and an increase in Gleason grade primary pattern in the hemi-prostate [2, 6]: 0 (p = 0.031) % | % Imp.: cancer treatment with new multifocal and an increase in Gleason grade primary pattern in the hemi-prostate ([2]; FT 2.5 mg, <=48 mos): 100% | percentage of patients: cancer treatment with new multifocal and an increase in Gleason grade primary pattern in the hemi-prostate [2, 7]: 2.6% | % Imp.: cancer treatment with new multifocal and an increase in Gleason grade primary pattern in the hemi-prostate ([2]; FT 15 mg, <=18 mos): 75.2% | percentage of patients: cancer treatment with new multifocal and an increase in Gleason grade primary pattern in the hemi-prostate [2, 8]: 3.6% | % Imp.: cancer treatment with new multifocal and an increase in Gleason grade primary pattern in the hemi-prostate ([2]; FT 15 mg, <=36 mos): 79.5% | percentage of patients: cancer treatment with new multifocal and an increase in Gleason grade primary pattern in the hemi-prostate [2, 9]: 4.2% | % Imp.: cancer treatment with new multifocal and an increase in Gleason grade primary pattern in the hemi-prostate ([2]; FT 15 mg, <=48 mos): 77.7% | percentage of patients: cancer treatment with new multifocal and an increase in Gleason grade primary pattern in the hemi-prostate [2, 10]: 1.3 (p = 0.034) % | % Imp.: cancer treatment with new multifocal and an increase in Gleason grade primary pattern in the hemi-prostate [2, 11]: 87.6% | percentage of patients: cancer treatment with new multifocal and an increase in Gleason grade primary pattern in the hemi-prostate [2, 12]: 1.7 (p = 0.01) % | % Imp.: cancer treatment with new multifocal and an increase in Gleason grade primary pattern in the hemi-prostate [2, 13]: 90.3% | percentage of patients: cancer treatment with new multifocal and an increase in Gleason grade primary pattern in the hemi-prostate [2, 14]: 2.1 (p = 0.019) % | % Imp.: cancer treatment with new multifocal and an increase in Gleason grade primary pattern in the hemi-prostate [2, 15]: 88.8% | percentage of patients: cancer treatment with new multifocal with increased Gleason grade in the hemi-prostate [3, 4]: 4.9% | % Imp.: cancer treatment with new multifocal with increased Gleason grade in the hemi-prostate ([3]; FT 2.5 mg, <=18 mos): 69% | percentage of patients: cancer treatment with new multifocal with increased Gleason grade in the hemi-prostate [3, 5]: 10% | % Imp.: cancer treatment with new multifocal with increased Gleason grade in the hemi-prostate ([3]; FT 2.5 mg, <=36 mos): 57.4% | percentage of patients: cancer treatment with new multifocal with increased Gleason grade in the hemi-prostate [3, 6]: 17.4% | % Imp.: cancer treatment with new multifocal with increased Gleason grade in the hemi-prostate ([3]; FT 2.5 mg, <=48 mos): 44.4% | percentage of patients: cancer treatment with new multifocal with increased Gleason grade in the hemi-prostate [3, 7]: 5.1% | % Imp.: cancer treatment with new multifocal with increased Gleason grade in the hemi-prostate ([3]; FT 15 mg, <=18 mos): 67.7% | percentage of patients: cancer treatment with new multifocal with increased Gleason grade in the hemi-prostate [3, 8]: 7.1% | % Imp.: cancer treatment with new multifocal with increased Gleason grade in the hemi-prostate ([3]; FT 15 mg, <=36 mos): 69.8% | percentage of patients: cancer treatment with new multifocal with increased Gleason grade in the hemi-prostate [3, 9]: 8.3% | % Imp.: cancer treatment with new multifocal with increased Gleason grade in the hemi-prostate ([3]; FT 15 mg, <=48 mos): 73.5% | percentage of patients: cancer treatment with new multifocal with increased Gleason grade in the hemi-prostate [3, 10]: 5% | % Imp.: cancer treatment with new multifocal with increased Gleason grade in the hemi-prostate [3, 11]: 68.4% | percentage of patients: cancer treatment with new multifocal with increased Gleason grade in the hemi-prostate [3, 12]: 8.6% | % Imp.: cancer treatment with new multifocal with increased Gleason grade in the hemi-prostate [3, 13]: 63.4% | percentage of patients: cancer treatment with new multifocal with increased Gleason grade in the hemi-prostate [3, 14]: 12.8% | % Imp.: cancer treatment with new multifocal with increased Gleason grade in the hemi-prostate [3, 15]: 59.1%
